# Source: ChEMBL document CHEMBL2401637, “The identification of novel p38α isoform selective kinase inhibitors having an unprecedented p38α binding mode” (Bioorg Med Chem Lett, 2013)
# Test: Aqueous solubility of the compound at pH 6.5
# Format: physicochemical
row,solubility,Compound
1,< 1 µg/mL,Cc1ccc(C(=O)NC2CC2)cc1NC(=O)c1ccc(-c2ccc(Cl)cc2)s1
2,< 1 µg/mL,Cc1ccc(C(=O)NC2CC2)cc1NC(=O)c1ccc(-c2cccc(Cl)c2)s1
3,< 1 µg/mL,Cc1ccc(C(=O)NC2CC2)cc1NC(=O)c1ccc(-c2ccccc2Cl)s1
